# Measured values published in patent EP4722365A1, “DOUBLE-STRANDED NUCLEOTIDE COMPOUND FOR METABOLIC DISEASES AND USE THEREOF” (Visirna Therapeutics (Suzhou) Co., Ltd., priority 2023, dated 2024).
# Key:
# Format in all cases: in vivo
# hDGAT2 = assay: Mouse model receiving hydrodynamic injection of DGAT2 plasmid via tail vein (Example 5, liver mRNA qPCR); settings: for Average inhibition rate, % Day 1 after HDI (day 5 after administration): 3mpk subcutaneously day 0, HDI day 4, BALB/c mice; for Average inhibition rate, % Day 1 after HDI (day 15 after administration): 3mpk subcutaneously day 0, HDI day 14, BALB/c mice
# Experimental: BALB/c mice, female, 6-7 weeks old.
# pcDNA-DGAT2 plasmid, having a concentration of 2 µg/µL, diluted with physiological saline for later use.
# The hydrodynamic injection scheme of DGAT2 plasmid DNA via tail vein, the administration and the sample collection method were as follows.
# Treatment with compound: The day of administration to mice was defined as day 0, the day before it was day -1, the day after it was day 1, and so on. On day 0, the mice were injected subcutaneously with 5 mL/kg of the solvent or the test compound, at a dosage of 3mpk.
# (§1) Hydrodynamic injection of DGAT2 plasmid DNA solution into mice via tail vein: On day 4 or 14, the plasmid DNA was prepared with normal saline before injection, and stored at 4°C until use. All mice were injected with the plasmid DNA solution in a volume of 8% of the body weight (injection volume (mL)= body weight of mice (g) x 8%) in 5 seconds via the tail vein, and the weight of plasmid injected into each mouse was 10 µg.
# Endpoint of the experiment and collection of liver samples: On day 5 or 15, that is, 24 hrs after the hydrodynamic injection of DGAT2 plasmid via the tail vein, all mice were euthanized by CO2 inhalation. After euthanasia, blood samples were collected from the heart and liver samples were collected. 2 liver tissues of about 70 mg were immersed in RNAlater®, and incubated overnight at 4 °C. The supernatant was discarded and the remainder was transferred to a freezer at -80°C, for mRNA detection later.
# RNA in the liver was extracted with Trizol. The method was briefly described as follows: 50-70 mg of liver tissue and 1.2 mL of Trizol were homogenized with Qiagen Tissue Lyser II at 26 Hz for 2 min and lyzed at room temperature for 5 min. 1 mL of the supernatant was taken, added to 200 uL of chloroform, vigorously shaken for 15 s, allowed to stand for 3 min, and centrifuged. The supernatant was collected, added with an equal volume of isopropanol, and stood overnight at -20°C for precipitation. The precipitate was washed twice with 70% , and dissolved in water without RNase. The concentration of the RNA sample was determined by Nanodrop ONE and diluted to 400 ng/uL with water without RNase for reverse transcription.
# The experimental steps of reverse transcription could be made reference to the instruction of FastKing cDNA first strand synthesis kit (genome clean). Briefly, a gDNA removal mixture was prepared according to Table 6. The mixture (5 µL/sample) and 400 ng/µL RNA sample were added to a 96-well PCR reaction plate, incubated at 42°C for 3 min, and cooled on ice. A mixture for reverse transcription was prepared according to Table 7. The reverse transcription mixture (10 µL/sample) and the DNA removal product of the previous step were added to a 96-well PCR reaction plate, for reverse transcription. Reaction conditions: 42°C for 15 min; and 95°C for 3 min. The cDNA was stored at 4°C for further analysis. Table 6. Ingredients for gDNA-removal reaction
# Reaction conditions: 95°C for 10 min; and 40 cycles of 95°C for 15 s, and 60°C for 1 min. Table 8. Ingredients for qPCR Reaction (DGAT2)
# (§2) The expression of the target gene in each sample was analyzed by relative quantification using ΔΔCt method. In this method, the Ct difference (ΔCt) between the target gene (DGAT2) and the internal reference gene (Neo) was determined, and the ΔCt value of the sample treated with the compound was compared with that of the control group.
# The formula is: ΔCt = average Ct value of target gene−average Ct value of reference gene. [formula] [formula]
# Data analysis: The data are expressed as the average of each group of mouse samples ± standard error. Unless otherwise specified, n=4 or 5. Student's t test was used for statistical analysis. Table 10.1 Test for evaluating the in-vivo inhibitory activity of siRNA compounds on target gene DGAT2 in mice model receiving hDGAT2 HDI 5 days after administration
# human DGAT2 [1] = assay: Mice receiving hydrodynamic injection of human DGAT2 plasmid via the tail vein (Example 8); settings: 3 mg/kg subcutaneous single dose day 0; BALB/c mice, liver DGAT2 mRNA
# Experimental: (§3) Animals: BALB/c mice, female, 6-7 weeks old.
# (§4) DGAT2 plasmid DNA: pcDNA-DGAT2 plasmid, having a concentration of 2 µg/µL, diluted with physiological saline for later use.
# Experimental method: The in-vivo experimental designs for the hydrodynamic injection of DGAT2 plasmid DNA, the administration and the sample collection method were shown in the table below.
# Treatment with compound: The day of administration to mice was defined as day 0, the day before it was day -1, the day after it was day 1, and so on. On day 0, the mice were injected subcutaneously with 5 mL/kg of the solvent or the test compound,
# Hydrodynamic injection of DGAT2 plasmid DNA solution into mice via tail vein: On day 14, the plasmid DNA was prepared with normal saline before injection, and stored at 4°C until use. […]
# (§5) Quantitative PCR detection of DGAT2 gene expression in mouse liver: RNA in the liver was extracted with Trizol. The concentration of the RNA sample was determined by Nanodrop ONE (ultra-micro ultraviolet-visible spectrophotometer) and diluted to 400 ng/uL with water without RNase for reverse transcription. Quantitative PCR detection of DGAT2 and NEO gene expressions in mouse liver: […]
# DGAT2 = assay: Inhibitory activity on the target gene DGAT2 in mice (Example 6, liver mRNA RT-PCR); settings: 3 mg/kg SC, day 0, once; C57BL/6 mice, liver mRNA day 7
# Source text: Animals: Male C57BL/6 mice, 6 weeks old, without particular pathogens. Before the experiment, the animals were allowed to acclimate to the environment for 7 days.
# Solvent: phosphate buffer (PBS).
# In-vivo experiment: The in-vivo experimental designs for the animal administration and the sample collection method were shown in the table below.
# Definition of days of experiment: The day of first administration to mice was defined as day 0, the day before it was day -1, the day after it was day 1, and so on.
# All mice were given a single dose of PBS, the control compound or the test compound by SC on day 0. On day 7, blood was taken from the submandibular vein plexus mice, and the plasma was collected. Then the mice were euthanized. Blood was taken from the heart for later use. The liver was collected for analysis of target mRNA level in the liver.
# Sample detection and analysis: RT-PCR was used to quantitatively detect the level of target mRNA in liver tissue.
# as §2, with “(GAPDH)” for “(Neo)”, “group. […]” for “group.”
# Data analysis: The data are expressed as the average of each group of mouse samples ± standard error. […]
# human DGAT2 [2] = assay: Mice receiving hydrodynamic injection of human DGAT2 plasmid via the tail vein (Example 7); settings: 3 mg/kg subcutaneous single dose day 0; BALB/c mice, liver DGAT2 mRNA
# Experimental: as §3, §4
# The in-vivo experimental designs for the hydrodynamic injection of DGAT2 plasmid DNA via the tail vein, the administration, and the sample collection method were shown in the table below.
# Treatment with compound: The day of administration to mice was defined as day 0, the day before it was day -1, the day after it was day 1, and so on. On day 0, the mice were injected subcutaneously with 5 mL/kg of the solvent or the test compound.
# as §1, with “day” for “day 4 or”, “µg. […]” for “µg.”
# as §5, with “RNA” for “Quantitative PCR detection of DGAT2 gene expression in mouse liver: RNA”
substance,measurement,setting,value
dS303: sense (invAb)*uguacauaUfUfCfugcacugauu*(invAb)[L96]; anti-sense a* Af*u*CfaGfugcagAfaUfaUfgUfaCf*a,"Average inhibition rate, % Day 1 after HDI (day 5 after administration)",hDGAT2,85.53%
dS304: sense (invAb)*cgcuacuuUfCfGfagacuacuuu*(invAb)[L96]; anti-sense a*Af*a*GfuAfgucucGfaAfaGfuAfgCf*g,"Average inhibition rate, % Day 1 after HDI (day 5 after administration)",hDGAT2,66.33%
dS302: sense (invAb)*acaccauaGfAfCfuauuugcuuu*(invAb)[L96]; anti-sense a* Af*a*GfcAfaauagUfcUfaUfgGfuGf*u,"Average inhibition rate, % Day 1 after HDI (day 5 after administration)",hDGAT2,97.46%
same,"Average inhibition rate, % Day 1 after HDI (day 15 after administration)",hDGAT2,70.35%
same,"Average inhibition rate, % (Day 15 after administration)",human DGAT2 [1],70.4%
dS307: sense (invAb)*ggugucugUfGfGfguuauuuaaa*(invAb)*[L96]; anti-sense Vpu*Uf*Uf*AfaauaaccCfaCfaGfacac*c,"Average inhibition rate, % Day 1 after HDI (day 15 after administration)",hDGAT2,61.03%
same,Average inhibition rate (%) (7 days),DGAT2,76%
dS305: sense [NAG37](invAb)*uggguuauUfUfAfaaagaaauua*(invAb ); anti-sense u*Af*a*UfuUfcuuuuAfaAfuAfaCfcCf*a,"Average inhibition rate, % Day 1 after HDI (day 5 after administration)",hDGAT2,95.59%
dS301: sense (invAb)*gaagaaguUfCfCfagaaauacau*(invAb)[L96]; anti-sense a*Uf*g*UfaUfuucugGfaAfcUfuCfuUf*c,"Average inhibition rate, % Day 1 after HDI (day 5 after administration)",hDGAT2,91.68%
same,"Average inhibition rate, % Day 1 after HDI (day 15 after administration)",hDGAT2,78.89%
same,"Average inhibition rate, % (Day 15 after administration)",human DGAT2 [2],79%
dS316: sense (invAb)*gaagaaguUfCfCfagaaauacaa[L96]; anti-sense Vpu*Uf*g*UfaUfuucugGfaAfcUfuCfuUf* c,"Average inhibition rate, % (Day 15 after administration)",human DGAT2 [2],66%
dS306: sense [NAG37](invAb)*uguggguuAfUfUfuaaaagaaau*(invAb ); anti-sense a*Uf*u*UfcUfuuuaaAfuAfaCfcCfaCf*a,"Average inhibition rate, % Day 1 after HDI (day 5 after administration)",hDGAT2,96.72%
